In patent US20110136141A1, “PEPTIDE REAGENTS AND METHOD FOR INHIBITING AUTOANTIBODY ANTIGEN BINDING” (Abbott Laboratories, priority 2009, published 2011):
The star is where a group is joined. Biotin = O=C1N[C@H]2[C@H](CS[C@H]2CCCCC(=O)*)N1

Tested on: endogenous antibodies to cardiac troponin-I (binding to recombinant human cardiac troponin-I)
Test: Inhibition of anti-cTnI autoantibody binding to cardiac troponin-I (microplate chemiluminescent immunoassay)
Method: Inhibitor working solutions: The peptides listed in Table 12 (obtained from Sigma-Genosys, PEPscreen custom library) were diluted in AxSYM® Troponin-I ADV Preincubation Diluent to give solutions ranging from 240 nmol/mL to 0 nmol/mL. An equimolar mixture of the peptides listed in Table 12 was prepared and diluted to give solutions ranging from 240 nmol/mL to 0 nmol/mL/.
Microplate preparation: Recombinant human cardiac troponin-I (cTnI, BiosPacific, Emeryville, Calif.) was coated on white high-binding flat-bottom 96-well polystyrene microplates (Costar) in phosphate buffer (100 μL, 0.2 M, pH 8, 4 μg/mL) at 38° C., for 1 h, then overcoated sequentially with bovine serum albumin and 2% wt/v sucrose in PBS.
Chemiluminescent detection conjugate: A murine anti-human IgG (subtype IgG2b, kappa;) was labeled with a chemiluminescent acridinium-9-carboxamide. This antibody recognized all human IgG subtypes while having no significant reactivity toward human IgM or IgA, or rabbit, sheep or goat IgG. […]
Chemiluminescent detection: The microplate was loaded into a Mithras microplate reader (Berthold Technologies Inc, Oak Ridge, Tenn.) equilibrated at 28° C. The chemiluminescence signal from each well was recorded for 2 s after the sequential addition of ARCHITECT® Pre-Trigger solution (100 μL) and ARCHITECT® Trigger solution (100 μL).

In the case of “#5 (Biotin-ALSGMEGRKKKFES-NH2; SMILES CSCC[C@H](NC(=O)CNC(=O)[C@H](CO)NC(=O)[C@H](CC(C)C)NC(=O)[C@H](C)NC(=O)CCCC[C@@H]1SC[C@@H]2NC(=O)N[C@@H]21)C(=O)N[C@@H](CCC(=O)O)C(=O)NCC(=O)N[C@@H](CCCNC(=N)N)C(=O)N[C@@H](CCCCN)C(=O)N[C@@H](CCCCN)C(=O)N[C@@H](CCCCN)C(=O)N[C@@H](Cc1ccccc1)C(=O)N[C@@H](CCC(=O)O)C(=O)N[C@@H](CO)C(N)=O)”, the “ratio of signal to the low control (S/LC): inhibition of the binding of endogenous antibodies to the cTnI antigen on the microplate” value (Example 1, FIG. 11, peptides of Table 12 ([Btn] amino-terminus), 240 to 0 nmol/mL, human serum sample mixed 1:1, overnight) is reported as “greatest inhibition” and the “ratio of signal to the low control (S/LC): inhibition of the binding of endogenous antibodies to the cTnI antigen on the microplate” value (Example 2, FIG. 12, peptides of Table 13 ([Ac] amino-terminus), procedure of Example 1) is reported as “greatest inhibition”.
